Experimental data taken from patent US20240181022A1, “AMURINS LYSINS, AND LYSIN-ANTIMICROBIAL PEPTIDE (AMP) CONSTRUCTS ACTIVE AGAINST GRAM-NEGATIVE BACTERIA” (priority 2021, published 2024).
≈ marks a conversion by molar mass, not a printed value. Where “and” joins values, the source holds several entries; their conditions need not be identical. Equal values may be shown once. Read-outs that look alike come from different tables or passages of the source. Where a SMILES comes first, the peptide text is derived from it. Where no end group is shown, it is not given here. [ ]: non-standard residue; d: D form.

Tests used:
[1] = test system: M. smegmatis; experiment: MIC against M. smegmatis; assay type: cell-based, Mycobacterium smegmatis; details: M. smegmatis (MC 155); CAAT media
[2] = test system: M. fortuitum; experiment: MIC against M. fortuitum; assay type: cell-based, Mycobacterium fortuitum; details: M. fortuitum (ATCC 6841); CAAT media
[3] = test system: M. avium; experiment: MIC against M. avium; assay type: cell-based, Mycobacterium avium; details: M. avium (ATCC 700898); CAAT media
[4] = test system: M. scrofulaceum; experiment: MIC against M. scrofulaceum; assay type: cell-based, Mycobacterium scrofulaceum; details: M. scrofulaceum (ATCC 19981); CAAT media
[5] = test system: M. tuberculosis; assay type: cell-based, Mycobacterium tuberculosis
[6] = test system: M. kansasii; experiment: MIC against M. kansasii; assay type: cell-based, Mycobacterium kansasii; details: M. kansasi (ATCC 12478); CAAT media
[7] = test system: Mycobacterium species; assay type: cell-based
[8] = test system: M. abscessus; experiment: MIC against MDR M. abscessus isolates; assay type: cell-based, Mycobacterium abscessus; details: 7 days; for MIC: AST media (CAAT); for activity (MIC) against M. abscessus: 5 clinical MDR strains and 1 ATCC strain, CAAT
[9] = test system: M. intracellulare; experiment: MIC against M. intracellulare; assay type: cell-based, Mycobacterium intracellulare; details: M. intracellulare (ATCC 13950); CAAT media
[10] = test system: E. cloacae; experiment: Checkerboard synergy assay (FICI) against E. cloacae; assay type: cell-based, Enterobacter cloacae; details: E. cloacae ATCC 13047
Procedure: (§1) Any known method to assess MIC may be used.
(§2) Checkerboards are constructed by first preparing columns of e.g., a 96-well polypropylene microtiter plate, wherein each well has the same amount of antibiotic diluted 2-fold along the horizontal axis. […] Bacteria are added to the drug combinations at concentrations of 1×10^5 […] in CAA, for example, with or without human serum or pulmonary surfactant. […] Summation fractional inhibitory concentrations (ΣFICs) are calculated for each drug and the minimum ΣFIC value (ΣFICmin) is used to determine the effect of the Chp peptide/antibiotic combination.
(§3) GN370 was further tested in combination with up to seven additional antibiotics (in addition to meropenem) against a variety of bacterial strains, including P. aeruginosa, A. baumannii, E. coli, E. cloacae, and K. pneumoniae. GN370 and the subject antibiotics were tested in a checkerboard assay format, and FICI values were determined, wherein ≤0.5 indicates synergy, >0.5-≤1 indicates additive; and >1 indicates indifferent.

[11] = test system: K. pneumoniae; experiment: Checkerboard synergy assay (FICI) against K. pneumoniae; assay type: cell-based, Klebsiella pneumoniae; details: K. pneumoniae HM-44
Procedure: as §1, §2, §3

[12] = test system: P. aeruginosa; experiment: Checkerboard synergy assay (FICI) with antibiotics against P. aeruginosa; assay type: cell-based, Pseudomonas aeruginosa; details: for FICI of the antibiotic with GN370: P. aeruginosa ATCC 27853, checkerboard; for Antibiotic MIC (single agent): P. aeruginosa strain AR-769; for Antibiotic FIC / Antibiotic MIC (combo): P. aeruginosa strain AR-769, in combination with GN370; for Antibiotic MIC (combo): in µg/mL
Procedure: as §1, §2
The synergy of GN370 with meropenem was evaluated against 3 different strains of P. aeruginosa and three different strains of B. cenocepacia.
as §3

[13] = test system: A. baumannii; experiment: Checkerboard synergy assay (FICI) against A. baumannii; assay type: cell-based, Acinetobacter baumannii; details: A. baumannii ATCC BAA-747
Procedure: as §1, §2, §3

[14] = test system: P. aeruginosa; details: […], before serial passage
[15] = test system: E. coli; experiment: Checkerboard synergy assay (FICI) against E. coli; assay type: cell-based, Escherichia coli; details: E. coli ATCC 25922
Text: In some embodiments, the Chp peptides disclosed herein or active fragments thereof reduce the minimum inhibitory concentration (MIC) of an antibiotic in the presence and/or absence of human serum, pulmonary surfactant, and/or sputum, including human sputum and human sputum from a cystic fibrosis patient. Any known method to assess MIC may be used. In some embodiments, a checkerboard assay is used to determine the effect of a Chp peptide or active fragment thereof on antibiotic concentration. The checkerboard assay is based on a modification of the CLSI method for MIC determination by broth microdilution (See Clinical and Laboratory Standards Institute (CLSI), CLSI. 2015. Methods for Dilution Antimicrobial Susceptibility Tests for Bacteria That Grow Aerobically; Approved Standard-10th Edition. Clinical and Laboratory Standards Institute, Wayne, PA, which is herein incorporated by reference in its entirety and Ceri et al. 1999. J. Clin. Microbiol. 37: 1771-1776, which is also herein incorporated by reference in its entirety).
Checkerboards are constructed by first preparing columns of e.g., a 96-well polypropylene microtiter plate, wherein each well has the same amount of antibiotic diluted 2-fold along the horizontal axis. […] The Chp peptide or active fragment thereof and antibiotic dilutions are then combined, so that each column has a constant amount of antibiotic and doubling dilutions of Chp peptide, while each row has a constant amount of Chp peptide and doubling dilutions of antibiotic. Each well thus has a unique combination of Chp peptide and antibiotic. Bacteria are added to the drug combinations at concentrations of 1×10^5 GFU/ml in CAA, for example, with or without human serum or pulmonary surfactant. […] Summation fractional inhibitory concentrations (ΣFICs) are calculated for each drug and the minimum ΣFIC value (ΣFICmin) is used to determine the effect of the Chp peptide/antibiotic combination.
as §3

[16] = M. tuberculosis (ATCC 35817), (ADC, T) media
[17] = M. tuberculosis strain TN8109_LB (MDR), 7H9 broth, 20 days
[18] = M. tuberculosis strain TN8562_M33 (susc), 7H9 broth, 20 days
[19] = M. tuberculosis strain TN10525_LL (MDR), 7H9 broth, 20 days
[20] = M. tuberculosis strain TN10571_KY (MDR), 7H9 broth, 20 days
[21] = M. tuberculosis strain TN12657_KQ15 (IS), 7H9 broth, 20 days
[22] = M. tuberculosis strain TN13923_HD17 (susc), 7H9 broth, 20 days
[23] = M. tuberculosis strain TN18349_W738 (susc), 7H9 broth, 20 days
[24] = M. tuberculosis strain TN34503_001 (susc), 7H9 broth, 20 days
[25] = M. abscessus strain BK51403 (ATCC 19977)
[26] = 30 amurin peptides, seven species, CAAT media

| Molecule | MIC [1] [µg/mL] | MIC [2] [µg/mL] | MIC [3] [Tg/mL] | MIC [4] [µg/mL] | MIC [5, 16] [µg/mL] | MIC [5, 17] [µg/mL] | MIC [5, 18] [µg/mL] | MIC [5, 19] [µg/mL] | MIC [5, 20] [µg/mL] | MIC [5, 21] [µg/mL] | MIC [5, 22] [µg/mL] | MIC [5, 23] [µg/mL] | MIC [5, 24] [µg/mL] | MIC [6] [µg/mL] | MIC ([8]; M. abscessus strain BK51402) [µg/mL] | MIC [8, 25] [µg/mL] | MIC ([8]; M. abscessus strain BK51408) [µg/mL] | FICI of the antibiotic with GN370 [10] | FICI of the antibiotic with GN370 [11] | FICI of the antibiotic with GN370 [13] | further results |
| --- | --- | --- | --- | --- | --- | --- | --- | --- | --- | --- | --- | --- | --- | --- | --- | --- | --- | --- | --- | --- | --- |
| CC[C@H](C)[C@H](NC(=O)CNC(=O)CNC(=O)[C@H](CCCNC(=N)N)NC(=O)[C@H](CCSC)NC(=O)[C@@H](NC(=O)[C@H](CCCNC(=N)N)NC(=O)[C@H](CCCNC(=N)N)NC(=O)[C@H](CC(C)C)NC(=O)[C@H](CCCNC(=N)N)NC(=O)[C@H](CC(N)=O)NC(=O)[C@H](CCCNC(=N)N)NC(=O)[C@@H]1CCCN1C(=O)[C@H](Cc1c[nH]cn1)NC(=O)[C@H](CCSC)NC(=O)[C@H](CCCNC(=N)N)NC(=O)[C@H](CC(C)C)NC(=O)[C@H](C)NC(=O)[C@@H](NC(=O)[C@H](CCCNC(=N)N)NC(=O)[C@H](CO)NC(=O)[C@H](Cc1ccccc1)NC(=O)[C@H](CC(C)C)NC(=O)[C@H](CCCNC(=N)N)NC(=O)[C@H](CCCNC(=N)N)NC(=O)[C@H](CO)NC(=O)[C@H](CCCNC(=N)N)NC(=O)[C@H](CCCNC(=N)N)NC(=O)[C@H](CCCNC(=N)N)NC(=O)[C@@H]1CCCN1C(=O)[C@H](CC(C)C)NC(=O)[C@H](CCCNC(=N)N)NC(=O)[C@H](Cc1ccc(O)cc1)NC(=O)[C@H](CCCNC(=N)N)NC(=O)[C@H](CCCNC(=N)N)NC(=O)[C@H](CCCNC(=N)N)NC(=O)[C@H](C)NC(=O)[C@@H](N)CCSC)[C@@H](C)O)[C@@H](C)CC)C(=O)N[C@@H](CCCNC(=N)N)C(=O)N[C@@H](Cc1ccccc1)C(=O)O [AM18] (H-MARRRYRLPRRRSRRLFSRTALRMHPRNRLRRIMRGGIRF-OH) | 0.25 (≈ 0.0483 µM) | 2 (≈ 0.386 µM) | 2 | 4 (≈ 0.772 µM) | 4 (≈ 0.772 µM) | 1 (≈ 0.193 µM) | 2 (≈ 0.386 µM) | 1 (≈ 0.193 µM) | 2 (≈ 0.386 µM) | 1 (≈ 0.193 µM) | 1 (≈ 0.193 µM) | 2 (≈ 0.386 µM) | 0.5 (≈ 0.0965 µM) | 4 (≈ 0.772 µM) | 2 (≈ 0.386 µM) | 1 (≈ 0.193 µM) | 4 (≈ 0.772 µM) | – | – | – | activity (MIC) against Mycobacterium species [7]: highest activity; MIC ([8]; M. abscessus strain BK55096): 4 µg/mL (≈ 0.772 µM); MIC ([8]; M. abscessus strain BK55691): 2 µg/mL (≈ 0.386 µM); MIC ([8]; M. abscessus strain BK58156): 16 µg/mL (≈ 3.09 µM); MIC [9]: 1 µg/mL (≈ 0.193 µM) |
| C[C@H]1[C@H](NC(=O)/C(=N\OC(C)(C)C(=O)O)c2csc(N)n2)C(=O)N1S(=O)(=O)O [Aztreonam] | – | – | – | – | – | – | – | – | – | – | – | – | – | – | – | – | – | 0.25 | 0.375 | 0.313 | FICI of the antibiotic with GN370 [12]: 0.375 |
| Cc1nnc(SCC2=C(C(=O)O)N3C(=O)[C@@H](NC(=O)Cn4cnnn4)[C@H]3SC2)s1 [Cefazolin] | – | – | – | – | – | – | – | – | – | – | – | – | – | – | – | – | – | – | 0.375 | 0.5 | – |
| NC[C@H]1O[C@H](O[C@H]2[C@H](O)[C@@H](O[C@H]3O[C@H](CO)[C@@H](O)[C@H](N)[C@H]3O)[C@H](N)C[C@@H]2N)[C@H](N)C[C@@H]1O [tobramycin, reference compound] | – | – | 0.125 | – | – | – | – | – | – | – | – | – | – | – | – | – | – | 0.5 | 0.375 | 0.5 | MIC [14]: 0.002 µg/mL (≈ 0.00428 µM); FICI of the antibiotic with GN370 [12]: 0.5; Antibiotic MIC (single agent) [12]: 0.125 µg/mL; Antibiotic FIC [12]: 0.125; Antibiotic MIC (combo) [12]: 0.016 and 0.015; FICI of the antibiotic with GN370 [15]: 0.25 |
| AM9: Modified variant of Unp2, SEQ ID NO: 97 (M[dR][dR][dR][dR]LS[dR][dR]TS[dR][dR]FF[dR][dK]GL[dK]V[dR][dR][dR]NL[dR]A[dR]PM[dR]GGF[dR]I) | 1 | 4 | 1 | 4 | 4 | 16 | 16 | 64 | 8 | 16 | 16 | 8 | 16 | 2 | 1 | 4 | 4 | – | – | – | activity (MIC) against Mycobacterium species [7, 26]: highest activity; activity (MIC) against M. abscessus [8]: good activity; MIC ([8]; M. abscessus strain BK55096): 2 µg/mL; MIC ([8]; M. abscessus strain BK55691): 2 µg/mL; MIC ([8]; M. abscessus strain BK58156): 2 µg/mL; MIC [9]: 2 µg/mL |
| AM16: Modified variant of Chp4, SEQ ID NO: 91 (MA[dR][dR]Y[dR]LS[dR][dR][dR]S[dR][dR]LFS[dR]TAL[dR]MH[dR][dR]N[dR]L[dR][dR]IM[dR]GGI[dR]F) | 0.25 | 2 | 1 | 1 | 8 | 8 | 8 | 16 | 8 | 8 | 8 | 4 | 16 | 1 | 1 | 2 | 4 | – | – | – | activity (MIC) against Mycobacterium species [7, 26]: highest activity; activity (MIC) against M. abscessus [8]: good activity; MIC ([8]; M. abscessus strain BK55096): 1 µg/mL; MIC ([8]; M. abscessus strain BK55691): 1 µg/mL; MIC ([8]; M. abscessus strain BK58156): 2 µg/mL; MIC [9]: 1 µg/mL |
| Colistin | – | – | – | – | – | – | – | – | – | – | – | – | – | – | – | – | – | 0.25 | 0.187 | 0.375 | FICI of the antibiotic with GN370 [12]: 0.499; Antibiotic MIC (single agent) [12]: 0.063 µg/mL; Antibiotic FIC [12]: 0.125; Antibiotic MIC (combo) [12]: 0.008; FICI of the antibiotic with GN370 [15]: 0.375 |
| Gentamicin | – | – | – | – | – | – | – | – | – | – | – | – | – | – | – | – | – | 0.25 | 0.375 | 0.563 | FICI of the antibiotic with GN370 [15]: 0.312 |
